Source: ChEMBL document CHEMBL1158190, “New Tetracyclic Sesterterpenes from Cydonia vulgaris” (J Nat Prod, 1996)
Activity calls are given as the source filed them. The calls are words filed in the database; no cut-off is given here.

Test system: Human immunodeficiency virus 1
Test: Antiviral activity against 10 CCID50 units of HIV1 infected in human C8166 cells at 2.5 ug/mL after 5 to 7 days
Format: functional, organism-based

Structure (SMILES) | Activity
CC(=O)OC1OC(=O)C=C1C(O)C[C@H]1[C@](O)(CO)CC[C@@H]2[C@@]3(C)CCCC(C)(C)[C@@H]3CC[C@]21C (some centres undefined) | inactive
CC(=O)OC[C@]1(O)CC[C@@H]2[C@@]3(C)CCCC(C)(C)[C@@H]3CC[C@@]2(C)[C@H]1CC(O)C1=CC(=O)OC1OC(=O)/C=C/c1ccccc1 (some centres undefined) | inactive
CC(=O)OC[C@]1(O)CC[C@@H]2[C@@]3(C)CCCC(C)(C)[C@@H]3CC[C@@]2(C)[C@H]1CC(O)C1=CC(=O)OC1OC(C)=O (some centres undefined) | inactive
CC1(C)CCC[C@]2(C)[C@H]3CC[C@@](O)(CO)[C@H](CC(O)C4=CC(=O)OC4OC(=O)/C=C/c4ccccc4)[C@]3(C)CC[C@@H]12 (some centres undefined) | inactive
